Assay results reported in PMC6651548, “Synthesis and AChE Inhibitory Activity of Novel Thiazolylhydrazone Derivatives” (Molecules, 2019).

Columns and labels:
hMAO-A = target: T1, hMAO-A (Homo sapiens, UniProt P21397); experiment: Monoamine oxidase fluorometric inhibition assay, MAO-A; type: biochemical; details: for inhibition at 1000 µM: 10^−3 M; for inhibition at 100 µM: 10^−4 M
T1 construct: purchased Sigma-Aldrich (Steinheim, Germany)
T1 sequence (P21397 1-527): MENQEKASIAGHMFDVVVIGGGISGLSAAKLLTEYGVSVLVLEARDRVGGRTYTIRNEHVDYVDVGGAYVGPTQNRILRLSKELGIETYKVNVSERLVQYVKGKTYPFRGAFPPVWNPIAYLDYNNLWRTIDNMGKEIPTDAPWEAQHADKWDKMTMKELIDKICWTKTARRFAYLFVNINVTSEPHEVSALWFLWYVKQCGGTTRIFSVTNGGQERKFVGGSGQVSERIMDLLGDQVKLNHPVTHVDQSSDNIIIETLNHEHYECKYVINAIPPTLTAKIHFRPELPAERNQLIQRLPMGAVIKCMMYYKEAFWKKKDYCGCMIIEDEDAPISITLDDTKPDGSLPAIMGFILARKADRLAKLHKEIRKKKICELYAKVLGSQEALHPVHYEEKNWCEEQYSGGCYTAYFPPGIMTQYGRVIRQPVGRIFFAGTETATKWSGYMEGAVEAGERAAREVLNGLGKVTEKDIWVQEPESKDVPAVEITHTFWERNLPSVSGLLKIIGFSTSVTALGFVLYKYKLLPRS
Protocol: In order to investigate the monoamine oxidase enzyme inhibitory effects of synthesized compounds, MAO-A and MAO-B enzyme activities were performed by using a fluorometric inhibition method. Moclobemide and selegiline were used as standard drugs for MAO-A and MAO-B enzymes, respectively. Test compounds and standard drugs were used in the same concentrations as in AChE and BChE enzyme activity assays. In Table 2, MAO enzyme inhibitory results are given. […]. To investigate the MAO-A and MAO-B enzyme inhibition profiles of the synthesized compounds, the fluorometric enzyme inhibition assay was carried out, as previously defined by us. Ampliflu™ Red (10-Acetyl-3,7-dihydroxyphenoxazine) was used as a fluorescence reagent in this assay.

hMAO-B = target: T2, hMAO-B (Homo sapiens, UniProt P27338); experiment: biochemical; details: for inhibition at 1000 µM: 10^−3 M; for inhibition at 1000 µM / inhibition at 100 µM: read-out: MAO-B % Inhibition; for inhibition at 100 µM: 10^−4 M; for IC50: read-out: MAO-B IC50
T2 construct: purchased Sigma-Aldrich (Steinheim, Germany)
T2 sequence (P27338 1-520): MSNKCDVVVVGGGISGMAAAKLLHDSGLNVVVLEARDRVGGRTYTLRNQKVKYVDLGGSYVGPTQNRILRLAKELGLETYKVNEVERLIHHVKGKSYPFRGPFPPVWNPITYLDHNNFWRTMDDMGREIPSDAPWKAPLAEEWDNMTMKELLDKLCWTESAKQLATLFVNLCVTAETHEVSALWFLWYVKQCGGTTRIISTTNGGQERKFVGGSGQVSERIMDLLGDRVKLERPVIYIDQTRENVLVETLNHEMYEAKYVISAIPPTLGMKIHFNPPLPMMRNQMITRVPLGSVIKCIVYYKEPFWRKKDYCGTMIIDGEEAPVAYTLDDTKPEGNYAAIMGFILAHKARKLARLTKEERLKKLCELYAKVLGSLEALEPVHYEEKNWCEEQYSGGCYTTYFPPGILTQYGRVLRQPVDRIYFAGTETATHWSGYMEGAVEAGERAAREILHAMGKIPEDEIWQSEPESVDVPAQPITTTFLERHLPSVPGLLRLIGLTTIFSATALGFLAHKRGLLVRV
Protocol: Test compounds and standard drugs were used in the same concentrations as in AChE and BChE enzyme activity assays. […] To investigate the MAO-A and MAO-B enzyme inhibition profiles of the synthesized compounds, the fluorometric enzyme inhibition assay was carried out, as previously defined by us. Ampliflu™ Red (10-Acetyl-3,7-dihydroxyphenoxazine) was used as a fluorescence reagent in this assay.

AChE = AChE (Homo sapiens, UniProt P22303); experiment: biochemical; details: for inhibition at 1000 µM: 10^−3 M; for inhibition at 100 µM: 10^−4 M
Chain of AChE (P22303 32-614): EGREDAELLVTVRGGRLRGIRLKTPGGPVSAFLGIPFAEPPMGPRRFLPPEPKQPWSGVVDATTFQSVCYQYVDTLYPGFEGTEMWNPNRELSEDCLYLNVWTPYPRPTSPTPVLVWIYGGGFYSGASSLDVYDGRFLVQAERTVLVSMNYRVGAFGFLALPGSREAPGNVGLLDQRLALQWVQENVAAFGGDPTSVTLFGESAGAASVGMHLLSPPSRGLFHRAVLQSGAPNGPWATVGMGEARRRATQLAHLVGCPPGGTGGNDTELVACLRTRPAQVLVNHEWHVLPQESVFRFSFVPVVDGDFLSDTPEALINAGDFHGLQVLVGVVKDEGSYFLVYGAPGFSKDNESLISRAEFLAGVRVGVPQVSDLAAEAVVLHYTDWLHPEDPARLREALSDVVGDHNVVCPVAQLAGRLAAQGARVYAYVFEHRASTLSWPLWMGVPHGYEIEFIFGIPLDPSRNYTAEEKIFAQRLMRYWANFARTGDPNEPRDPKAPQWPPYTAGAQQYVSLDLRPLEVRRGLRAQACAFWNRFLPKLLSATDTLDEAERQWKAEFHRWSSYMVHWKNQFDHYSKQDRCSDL

BChE = BChE (Homo sapiens, UniProt P06276); experiment: Anticholinesterase activity assay (modified Ellman method), BChE; type: biochemical; details: for inhibition at 1000 µM: 10^−3 M; for inhibition at 100 µM: 10^−4 M
Chain of BChE (P06276 29-602): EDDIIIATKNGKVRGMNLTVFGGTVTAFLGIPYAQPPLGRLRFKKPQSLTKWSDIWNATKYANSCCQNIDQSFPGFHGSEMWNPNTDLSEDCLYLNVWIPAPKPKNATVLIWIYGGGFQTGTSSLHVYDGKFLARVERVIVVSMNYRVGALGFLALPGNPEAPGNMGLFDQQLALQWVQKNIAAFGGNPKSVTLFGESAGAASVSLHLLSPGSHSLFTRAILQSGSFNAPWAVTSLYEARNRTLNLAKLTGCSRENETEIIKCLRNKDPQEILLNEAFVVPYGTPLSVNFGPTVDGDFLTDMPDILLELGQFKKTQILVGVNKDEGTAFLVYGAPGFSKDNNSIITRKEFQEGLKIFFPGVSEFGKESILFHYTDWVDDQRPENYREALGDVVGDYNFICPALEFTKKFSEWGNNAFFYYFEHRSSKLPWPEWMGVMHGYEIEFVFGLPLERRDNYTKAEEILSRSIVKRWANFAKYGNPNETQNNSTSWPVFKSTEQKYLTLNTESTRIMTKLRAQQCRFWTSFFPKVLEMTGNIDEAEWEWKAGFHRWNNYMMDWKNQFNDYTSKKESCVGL
Protocol: . Initially, all the obtained compounds were tested at 10^−3 M and 10^−4 M concentrations and the ChE inhibitory results are outlined in Table 1. […]. Compounds 3a, 3c and 3i indicated more than 50% activity at the 10^−4 M concentration. […]. […] According to the results of activity tests, some general results can be listed as follows. The compounds 3a, 3c and 3i contain the non-substituted, methoxy and trifluoromethyl substituents on the phenyl ring, respectively. […]
The inhibitory capacity of the obtained compounds on AChE and BChE biological activities was assessed using a modified Ellman’s spectrometric method, as described in our previous studies. Donepezil were used as a reference drug. All pipetting procedures in the enzyme inhibition assay were carried out via a robotics system, Biotek Precision XS (Winooski, VT, USA). A BioTek-Synergy H1 microplate reader (Winooski, VT, USA) was used to carry out measurements of percent inhibition at 412 nm, and the IC50 values of the selected compounds were performed as previously described.

Structure (SMILES)	inhibition at 1000 µM (hMAO-A)	inhibition at 100 µM (hMAO-A)	inhibition at 1000 µM (hMAO-B)	inhibition at 100 µM (hMAO-B)	IC50 (hMAO-B)	inhibition at 1000 µM (AChE)	IC50 (AChE; 10^−3–10^−9 M concentrations)	inhibition at 1000 µM (BChE)	inhibition at 100 µM (BChE)	inhibition at 100 µM (AChE)
Fc1ccc(N2CCN(c3ccc(C=NNc4nc(-c5ccccc5)cs4)cc3)CC2)cc1 [Compound 3a, 2-(2-(4-(4-(4-fluorophenyl)piperazin-1-yl)benzylidene)hydrazineyl)-4-phenylthiazole]	38.2 ± 0.95%	20.1 ± 0.63%	78.2 ± 1.05%	70.2 ± 0.99%	2110 ± 86 nM	84.2 ± 0.89%	49.6 ± 2 nM	21.5 ± 0.38%	19.3 ± 0.28%	–
Cc1ccc(-c2csc(NN=Cc3ccc(N4CCN(c5ccc(F)cc5)CC4)cc3)n2)cc1 [Compound 3b, 2-(2-(4-(4-(4-fluorophenyl)piperazin-1-yl)benzylidene)hydrazineyl)-4-(p-tolyl)thiazole]	44.2 ± 1.08%	25.8 ± 0.8%	60.8 ± 1.11%	46.7 ± 0.98%	–	75.3 ± 1.05%	–	37.4 ± 0.67%	25.3 ± 0.58%	45.9 ± 0.88%
O=[N+]([O-])c1ccc(-c2csc(NN=Cc3ccc(N4CCN(c5ccc(F)cc5)CC4)cc3)n2)cc1 [Compound 3d, 2-(2-(4-(4-(4-fluorophenyl)piperazin-1-yl)benzylidene)hydrazineyl)-4-(4-nitrophenyl)thiazole]	51 ± 0.97%	39.1 ± 0.71%	75.7 ± 1.06%	65.2 ± 0.97%	5200 ± 153 nM	76.7 ± 1.12%	–	35.4 ± 0.49%	31.9 ± 0.56%	38.5 ± 0.76%
N#Cc1ccc(-c2csc(NN=Cc3ccc(N4CCN(c5ccc(F)cc5)CC4)cc3)n2)cc1 [Compound 3e, 4-(2-(2-(4-(4-(4-fluorophenyl)piperazin-1-yl)benzylidene)hydrazineyl)thiazol-4-yl)benzonitrile]	47.2 ± 0.88%	23.5 ± 0.6%	58.1 ± 0.9%	43.1 ± 0.71%	–	71.2 ± 0.9%	–	31.8 ± 0.61%	24.9 ± 0.38%	42.3 ± 0.63%
Fc1ccc(-c2csc(NN=Cc3ccc(N4CCN(c5ccc(F)cc5)CC4)cc3)n2)cc1 [Compound 3f, 4-(4-fluorophenyl)-2-(2-(4-(4-(4-fluorophenyl)piperazin-1-yl)benzylidene)hydrazineyl)thiazole]	30.1 ± 0.47%	19.3 ± 0.41%	57.3 ± 1.03%	39.2 ± 0.79%	–	78.4 ± 1.04%	–	28.2 ± 0.42%	20.4 ± 0.35%	48.1 ± 0.87%
